Assay results from PubChem BioAssay AID1963981 (Molecular Pharmacology Branch, DTP, NCI, 2024).
pIC50: −log10 of the molar value.

Tested on: 354836-022-R-J1-PDC multicell spheroid viability
Assay: Anticancer human tumor 354836-022-R-J1-PDC patient-derived head and neck squamous cell carcinoma cell line growth inhibition [PI3K]
Conditions: for pIC50: curve of first compound; for viability, T/C: stronger effect = lower value; active means viability on the fitted dose curve at most 10% of control; inactive means the rest
Procedure, shortened: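 Spheroid viability read-out. Co-cultures contained the tumor line plus HUVEC and human MSCs. Each agent was paired with a PI3K inhibitor (inavolisib, alpelisib, duvelisib, copanlisib) across half-log dilutions starting at clinical Cmax, or at 10 microM when Cmax was unknown.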

[1] = second compound 0.0316 µM, first compound 0.0316 µM
[2] = second compound 0.0316 µM, first compound 0.1 µM
[3] = second compound 0.0316 µM, first compound 0.316 µM
[4] = second compound 0.0316 µM, first compound 1 µM
[5] = second compound 0.1 µM, first compound 0.0316 µM
[6] = second compound 0.1 µM, first compound 0.1 µM
[7] = second compound 0.1 µM, first compound 0.316 µM
[8] = second compound 0.1 µM, first compound 1 µM
[9] = second compound 0.316 µM, first compound 0.0316 µM
[10] = second compound 0.316 µM, first compound 0.1 µM
[11] = second compound 0.316 µM, first compound 0.316 µM
[12] = second compound 0.316 µM, first compound 1 µM
[13] = second compound 1 µM, first compound 0.0316 µM
[14] = second compound 1 µM, first compound 0.1 µM
[15] = second compound 1 µM, first compound 0.316 µM
[16] = second compound 1 µM, first compound 1 µM
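Further: spheroids exposed to agents for seven days before the viability read.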

Cn1nccc1Nc1nccc(-c2ccn(C(CO)c3ccc(Cl)c(F)c3)c(=O)c2)n1 (centres undefined) + CC(Nc1ncnc2nc[nH]c12)c1cc2cccc(Cl)c2c(=O)n1-c1ccccc1
< 5.00: pIC50 (second compound 0.0316 µM) | pIC50 (second compound 0.1 µM) | pIC50 (second compound 0.316 µM) | pIC50 (second compound 1 µM) | pIC50 (second compound 3.16 µM) | pIC50 (second compound 10 µM)
inactive: viability, T/C [1] 107% | viability, T/C [2] 107% | viability, T/C [3] 103% | viability, T/C [4] 94.9% | viability, T/C (second compound 0.0316 µM, first compound 3.16 µM) 89.3% | viability, T/C (second compound 0.0316 µM, first compound 10 µM) 90.5% | viability, T/C [5] 108% | viability, T/C [6] 110% | viability, T/C [7] 94.3% | viability, T/C [8] 104% | viability, T/C (second compound 0.1 µM, first compound 3.16 µM) 91.2% | viability, T/C (second compound 0.1 µM, first compound 10 µM) 96.4% | viability, T/C [9] 113% | viability, T/C [10] 93.5% | viability, T/C [11] 87.2% | viability, T/C [12] 106% | viability, T/C (second compound 0.316 µM, first compound 3.16 µM) 100% | viability, T/C (second compound 0.316 µM, first compound 10 µM) 94.9% | viability, T/C [13] 117% | viability, T/C [14] 95.5% | viability, T/C [15] 111% | viability, T/C [16] 118% | viability, T/C (second compound 1 µM, first compound 3.16 µM) 101% | viability, T/C (second compound 1 µM, first compound 10 µM) 78.2% | viability, T/C (second compound 3.16 µM, first compound 0.0316 µM) 94.4% | viability, T/C (second compound 3.16 µM, first compound 0.1 µM) 91.6% | viability, T/C (second compound 3.16 µM, first compound 0.316 µM) 99.3% | viability, T/C (second compound 3.16 µM, first compound 1 µM) 97.3% | viability, T/C (second compound 3.16 µM, first compound 3.16 µM) 107% | viability, T/C (second compound 3.16 µM, first compound 10 µM) 88.1% | viability, T/C (second compound 10 µM, first compound 0.0316 µM) 88.3% | viability, T/C (second compound 10 µM, first compound 0.1 µM) 103% | viability, T/C (second compound 10 µM, first compound 0.316 µM) 95.3% | viability, T/C (second compound 10 µM, first compound 1 µM) 85.4% | viability, T/C (second compound 10 µM, first compound 3.16 µM) 94% | viability, T/C (second compound 10 µM, first compound 10 µM) 76.1%

CCN1CCN(Cc2ccc(Nc3ncc(F)c(-c4cc(F)c5nc(C)n(C(C)C)c5c4)n3)nc2)CC1 + COc1c(OCCCN2CCOCC2)ccc2c3n(c(=NC(=O)c4cnc(N)nc4)nc12)CCN3
active: viability, T/C [8] 6.41% | viability, T/C [9] 12.9% | viability, T/C [10] 8.98% | viability, T/C [11] 5.99% | viability, T/C [12] 2.69% | viability, T/C (second compound 1 µM, first compound 0.00316 µM) 1.43% | viability, T/C (second compound 1 µM, first compound 0.01 µM) 1.38% | viability, T/C [13] 1.41% | viability, T/C [14] 1.78% | viability, T/C [15] 1.38% | viability, T/C [16] 1.22%
6.19: pIC50 (second compound 0.01 µM)
6.47: pIC50 (second compound 0.0316 µM)
> 8.50: pIC50 (second compound 0.1 µM) | pIC50 (second compound 0.316 µM) | pIC50 (second compound 1 µM)
inactive: viability, T/C (second compound 0.00316 µM, first compound 0.00316 µM) 97.2% | viability, T/C (second compound 0.00316 µM, first compound 0.01 µM) 86.5% | viability, T/C (second compound 0.00316 µM, first compound 0.0316 µM) 98.3% | viability, T/C (second compound 0.00316 µM, first compound 0.1 µM) 99.3% | viability, T/C (second compound 0.00316 µM, first compound 0.316 µM) 71.5% | viability, T/C (second compound 0.00316 µM, first compound 1 µM) 37.6% | viability, T/C (second compound 0.01 µM, first compound 0.00316 µM) 98% | viability, T/C (second compound 0.01 µM, first compound 0.01 µM) 101% | viability, T/C (second compound 0.01 µM, first compound 0.0316 µM) 96% | viability, T/C (second compound 0.01 µM, first compound 0.1 µM) 81.1% | viability, T/C (second compound 0.01 µM, first compound 0.316 µM) 83.5% | viability, T/C (second compound 0.01 µM, first compound 1 µM) 31.7% | viability, T/C (second compound 0.0316 µM, first compound 0.00316 µM) 78.5% | viability, T/C (second compound 0.0316 µM, first compound 0.01 µM) 74.4% | viability, T/C [1] 72.6% | viability, T/C [2] 65.2% | viability, T/C [3] 53.5% | viability, T/C [4] 20.9% | viability, T/C (second compound 0.1 µM, first compound 0.00316 µM) 46.6% | viability, T/C (second compound 0.1 µM, first compound 0.01 µM) 41.8% | viability, T/C [5] 46.5% | viability, T/C [6] 36.6% | viability, T/C [7] 30.4% | viability, T/C (second compound 0.316 µM, first compound 0.00316 µM) 11.8% | viability, T/C (second compound 0.316 µM, first compound 0.01 µM) 10.4%
6.18: pIC50 (second compound 0.00316 µM)
